Experimental data published in patent US20220280653A1, “INTERCELLULAR ADHESION MOLECULE 1 (ICAM1) ANTIBODY DRUG CONJUGATE AND USES THEREOF” (Children's Medical Center Corporation, priority 2019, published 2022).
Structures can show the parent of a compound that is named as a salt.

Assays:
PANC-1 cells = assay: Cytotoxicity assay (CCK-8); type: cell-based; settings: Homo sapiens; PANC-1, 72 hours
Method: Human pancreatic cancer cell lines were seeded in a 96-well plate at a density of 5x10^3 cells/well and allowed to adhere overnight. The culture medium was then replaced with medium containing free GEM, IgG or ICAM1 conjugated DM1, Duo, MMAE, MMAF at different drug concentrations. After cells were cultured for another 72 hours, the cytotoxicity was determined by CCK-8 assay following the vendor-provided protocol. Cells were carefully rinsed with PBS after the drug-containing medium was removed, and this was followed by adding the CCK-8 containing medium solution. The cells were then incubated with the CCK-8 medium for 4 hours. The plate was read at the absorbance wavelength of 450 nm using a microplate reader (Synergy2; BioTek, Winooski, Vt., USA). Cell viability was determined by comparing the absorbance of cells incubated with drugs to that of the control cells incubated without the presence of the drug.

[1] = in vivo; cited from earlier work

## Nc1ccn([C@@H]2O[C@H](CO)[C@@H](O)C2(F)F)c(=O)n1 [GEM, Gemcitabine hydrochloride]
PANC-1 cells
  IC50: 89.1 µM
[1]
  circulation half-life: 16.8 min
